Where a name gives a salt, the structure may show the parent alone.
Tests used:
in vivo = conditions: male, Dutch Belted, rabbit, topical or ocular
Description: (§2) In the ocular biodistribution study, after a minimum of 72 hours following the completion of the ocular tolerability study, the twelve rabbits were re-assigned to Group 5 for the ocular biodistribution study. Group 6 was added and consisted of 3 naïve rabbits. Group 6 was included to evaluate the potential carryover effect of articaine over a 72 hour period post treatment. Group 5 and 6 animals were administered articaine at 8% and 12% w/v, respectively. Doses were administered via bilateral topical administration (two drops of 35 μL/eye). Group 5 animals were sacrificed at 10 minutes, and 1, 4 and 8 hours post treatment (N=3 at each time point). Group 6 rabbits were sacrificed at 24, 48 and 72 hours post treatment (N=1 at each time point). Just prior to sacrifice blood samples were collected from each animal. Animals were then euthanized and aqueous humor, conjunctivas (palpebral and bulbar), lens, cornea, vitreous humor, iris-ciliary body [ICB], optic nerve, lacrimal gland, retina, and choroid were collected.
(§3) The objectives of this study were to determine the tolerability of placebo and Articaine HCl ophthalmic solutions at concentrations of 4, 8, and 12% (w/v) following topical eye drop administration, and to determine the ocular pharmacokinetics and biodistribution of articaine and articainic acid following topical eye drop administration of 8% Articaine HCl ophthalmic solution.

Dutch Belted rabbits [1] = experiment: Local anesthetic effect by Cochet-Bonnet esthesiometry; format: in vivo; conditions: topical ocular administration, two drops of 35 μL/eye
Description: (§1) In the ocular tolerability study, a total of twelve male Dutch Belted rabbits divided randomly into four groups, were administered a placebo of phosphate buffered saline (PBS) or articaine at 4%, 8%, or 12% respectively. […] Ophthalmic examinations were performed on dose tolerability animals (Groups 1 through 4) predose and at 5, 10, and 20 minutes, and at 1, 2, 4, and 24 hours post the second eye drop administration in each eye using the modified Hackett-McDonald Scoring System. Following the modified Hackett-McDonald Scoring, local anesthetic effect was monitored in each eye by Cochet-Bonnet esthesiometry predose and at approximately 5, 10, and 20 minutes, and 1 hour following administration of the second eye drop in each eye. […] Topical ocular administration of articaine provided an anesthetic effect out to 20 minutes postdose with no notable tolerability issues.

[2] = in vivo; cited from earlier work
[3] = rabbit, in vivo
Description: as §2, §3

Dutch Belted rabbits [4] = format: in vivo; conditions: articaine 4%, 8%, or 12%, bilateral topical, two drops of 35 μL/eye, observed 24 hours
Description: Two subparts of one study were conducted on Dutch Belted rabbits, namely, an ocular tolerability study followed by an ocular biodistribution study.
as §1

[5] = Ocular biodistribution / pharmacokinetics study
Description: as §2, §3

Row | Compound | Tmax (in vivo) [min] | Cmax (in vivo; Plasma Cmax) [ng/mL] | anesthetic effect, time postdose (Dutch Belted rabbits [1]) [min] | excreted as the metabolites [2] [%] | protein binding [2] | renally excreted unchanged [2] | systemic exposure, as indicated by plasma AUC [3] | tolerability / treatment related adverse effects (Dutch Belted rabbits [4]) | residual concentrations in ocular matrices ([5]; 12% articaine topical, 24, 48, and 72 hours postdose) | ratio of AUC0-last articainic acid over AUC0-last articaine ([5]; all other matrices) | ratio of AUC0-last articainic acid over AUC0-last articaine ([5]; cornea) | T1/2 (half-life) ([5]; plasma) | ratio of AUC0-last articainic acid over AUC0-last articaine ([5]; plasma) | Plasma Cmax ([5]; plasma, 8% articaine topical, two drops of 35 μL/eye) [ng/mL]
1 | CCCNC(C)C(=O)Nc1c(C)csc1C(=O)OC (centres unmarked) [articaine, 4-methyl-3 (2-[propylamino]proprioamido)-2-thiophenecarboxylic acid, methyl ester hydrochloride] | 10 | 457 | 20 | 89 | highly protein bound | Five to ten | minimal | well tolerated in all animals at concentrations up to 12% w/v |  |  |  |  |  | 
2 | Articainic acid |  |  |  |  |  |  |  |  | Low residual concentrations | < 0.7 | approximately 2 | approximately 1.5 hours | approximately 2 | 217

— US11826347B2, “Anesthetic composition and method of anesthetizing the eye” (priority 2018, dated 2023)
